Columns and labels:
Type in all cases: in vivo, mouse
SOD1^G37R mice [1] = assay: Gait analysis (footprint test); conditions: P520; treatment from disease onset; N=8
Method: Finally, we aimed to better characterize the walking pattern of the mice following treatment. We measured the gait by performing a footprint analysis using inked paws.
Gait was assessed using the footprint test. Paws were inked with a nontoxic paint (fore-paws in blue and hind-paws in red), mice were placed on a restricted pathway on a white paper sheet (30 cm long, 6 cm wide) and free to walk along the walkway. Five footsteps from each run were measured for the following parameters (cm): (1) stride length ([…]) and (2) Step width (distance between left and right paws). The mean value of each set of outcomes was calculated for statistical analysis.

SOD1^G37R mice [2] = assay: Motor neuron counts in lumbar spinal cord sections (ChAT/NeuN); conditions: P520, treatment from disease onset, p<0.0001
Description: We prepared lumbar spinal cords sections as previously described[6] and labeled MNs with the cholinergic neuronal marker ChAT and the general neuronal nuclei marker NeuN to identify α-MNs. Neurons positive for both markers located in the ventral horn were counted as α-MNs.
Motor neuron counts: Mouse were perfused transcardially and lumbar spinal cord were subsequently dissected, cryoprotected in a 30% sucrose solution and frozen using dry ice. Floating lumbar spinal cord cryosections were processed as previously described. Spinal cords cryosections were double stained against Choline Acetyl-Transferase (ChAT: 1:100; Goat; Millipore, Canada; AB144P) and the neuronal marker Neuronal Nuclei (NeuN; 1:300; Mouse IgG1; Millipore; MAB377). ChAT and NeuN positive cells were identified as α-MNs[4]. A minimin of twenty lumbar spinal cord sections per animal were analysed and double-positive cells from each ventral horns were quantified.

SOD1^G37R mice [3] = assay: NMJ innervation status and NMJ repair signs by immunohistochemistry
Method: We characterized EDL innervation status, a vulnerable fast-twitch muscle in ALS [3, 25-27], by classifying NMJs into fully innervated, partially innervated and denervated NMJs (FIG. 2A).
Neuromuscular innervation: Immunostaining was performed on EDL and SOL muscle previously described. Briefly, NMJs were labeled to visualise the axon terminal, Schwann cells and the post-synaptic receptors. The presynaptic element was labeled using an anti-synaptic vesicular protein 2 (SV2, 1:2000, Developmental Studies Hybridoma Bank) and an anti-neurofilament M, (NF-M, 1:1000, Rockland Immunochemicals Inc). PSCs and Schwann cells were labeled with anti-S100β antibody (1:4, Z0311, Dako) and post-synaptic receptors with Alexa594-conjugated-α-BTX (1.33 μg/ml, Molecular Probes, Fischer Scientific, Canada).
Observations and image acquisition were obtained using a Zeiss LSM 880 confocal microscope, with a 63× oil immersion objective (N.A. 1.4) or an Olympus FV 1000, with either a 63× oil immersion objective or a 20× water immersion objective (respectively N.A. 0.95 and 0.90). No image manipulations were performed after acquisition, except for brightness and contrast adjustments for figure presentation.

SOD1^G37R mice [4] = assay: EDL muscle weight
SOD1^G37R mice [5] = assay: EDL muscle fatigue protocol and 30 min recovery
Method: In addition to the force generated, a muscle is also characterised by its resistance to fatigue. For instance, fast-twitch muscles composed of a majority of fast fatigable motor units like the EDL, is their great fatigability. In ALS, alteration at the type of innervation (from fast to slow twitch) and in the properties of muscles themselves alter the fatigue properties, rendering them more resistant. […] We used a fatigue stimulation protocol, followed by a 30 min recovery period (FIG. 6A). […] However, we found no difference in the rate of fatigue of muscle contractions generated by motor nerve stimulation (FIG. 6C; Dari N=8, Placebo N=8; p>0.05, Repeated two-way ANOVA). […] There was no difference in the rate of recovery following the fatigue protocol between the darifenacin-treated mice and the placebo-treated ones (FIG. 6B-C; Dari N=8, Placebo N=8; p>0.05, Repeated two-way ANOVA).
Finally, we investigated the fatigue properties of the EDL muscle following darifenacin pre-onset treatment. As mentioned earlier, fast-twitch muscles like the EDL are very strong but are normally highly fatigable. However, in ALS, a gradual resistance to fatigue of fast-twitch muscles have been unraveled, following progression of disease pathogenesis. We used a fatigue stimulation protocol (180 trains at 120 Hz-300 ms), followed by a 30 min recovery period (see FIG. 6A) to investigate treatment impact on EDL fatigue properties. […] The strong resistance of the muscle to fatigue probably reflected the high rate of denervation of the EDL muscle at the symptomatic stage in both darifenacin-and placebo-treated mice.
Muscle fatigue: The fatigue protocol is illustrated in FIG. 6A. The fatigue protocol was adapted to each muscle owing to the differences in their intrinsic properties. For the EDL, fatigue was tested using a bout of 180 nerve stimulations for a duration of 300 ms, elicited at a frequency of 120 Hz. The rest period between each stimulation was 700 ms, for a total protocol duration of 3 min. Muscular stimulations were super-imposed to nerve stimulations every 10 stimulations (18 simultaneous nerve-muscle stimulations), to evaluate muscular reserve. The fatigue protocol for the SOL consisted of a bout of 300 nerve stimulations for 500 ms at 50 Hz, with a rest period of 600 ms between stimulations, for a total duration of 5 min 30. Muscular stimulations were super-imposed to nerve stimulations every 10 stimulations (30 simultaneous nerve-muscle stimulations).
Each fatigue protocol was followed by a 30 min recovery period during which muscular and neuromuscular contractile force were measured at the following latencies (after the end of the fatigue protocol): 5 s, 10 s, 15 s, 30 s, 45 sec, 1 min, 1.5 min, 2 min, 2.5 min, 5 min, 10 min, 20 min and 30 min.

[6] = EDL, pre-onset treatment P400 until P480
[7] = EDL, treatment from disease onset (P450), 10 mg/kg orally, to P520
[8] = EDL, treatment from disease onset, 10 mg/kg orally
[9] = pre-onset treatment P400 until P520

Question: Which step width (SOD1^G37R mice [1]) does the source give for `NC(=O)C(c1ccccc1)(c1ccccc1)[C@@H]1CCN(CCc2ccc3c(c2)CCO3)C1` [darifenacin] here?
Answer: The step width was 2.62±0.16 cm.

Question: What about the stride length (SOD1^G37R mice [1]) of the same molecule?
Answer: Its stride length is 4.13±0.36 cm.

Question: And the “α-MN count per ventral horn vs placebo” value (SOD1^G37R mice [2])?
Answer: Its value is “significantly higher”.

Question: What about the “animals in which glial process extensions were seen” value (SOD1^G37R mice [3]; [6]) of the same molecule?
Answer: Its value is 5 out of 6.

Question: What about the “percentage of denervated NMJs” value (SOD1^G37R mice [3]; [6]) of the same molecule?
Answer: Its value is 15.7±5.9%.

Question: What about the “percentage of partially innervated NMJs” value (SOD1^G37R mice [3]; [6]) of the same molecule?
Answer: The value was 33.9±5.1%.

Question: And the “percentage of fully innervated NMJs” value (SOD1^G37R mice [3]; EDL, pre-onset treatment P400 until P480, N=6, n=145)?
Answer: The value was 50.4±9.2%.

Question: And the “percentage of denervated NMJs” value (SOD1^G37R mice [3]; EDL, treatment from disease onset (P450), 10 mg/kg orally 5 days a week, to P520, N=7, n=293)?
Answer: The value was 5.6±1.8%.

Question: And the “percentage of fully innervated NMJs” value (SOD1^G37R mice [3]; [7])?
Answer: Its value is 70.1±4.2%.

Question: And the “percentage of partially innervated NMJs” value (SOD1^G37R mice [3]; [7])?
Answer: Its value is 24.2±4.0%.

Question: What about the “percentage of NMJs presenting nerve sprouting” value (SOD1^G37R mice [3]; [8]) of the same molecule?
Answer: Its value is 21.5±4.3%.

Question: And the “percentage of NMJs with glial processes alone” value (SOD1^G37R mice [3]; [8])?
Answer: Its value is 2.2±1.8%.

Question: And the “percentage of NMJs with polyinnervation” value (SOD1^G37R mice [3]; [8])?
Answer: Its value is 6.4±2.8.

Question: And the “NMJ repair signs (nerve sprouting, polyinnervation, glial processes) vs placebo” value (SOD1^G37R mice [3]; SOL and EDL, pre-onset treatment P400 until P480)?
Answer: Its value is “no evidence of significant difference”.

Question: And the “percentage of partially innervated NMJs” value (SOD1^G37R mice [3]; SOL, pre-onset treatment P400 until P480)?
Answer: The value was 34.9±8.6%.

Question: What about the “percentage of fully innervated NMJs” value (SOD1^G37R mice [3]; SOL, pre-onset treatment P400 until P480, N=4, n=118) of the same molecule?
Answer: Its value is 60.5±8.2%.

Question: What about the EDL muscle weight (SOD1^G37R mice [4]; pre-onset treatment P400 until P520, N=4, n=7) of the same molecule?
Answer: The EDL muscle weight was 9.1 ± 0.55 mg.

Question: And the EDL muscle weight (SOD1^G37R mice [4]; treatment from disease onset, N=8, n=16)?
Answer: Its EDL muscle weight is 11.79 ± 0.34 mg.

Question: What about the “rate of fatigue generated by muscle stimulation vs placebo” value (SOD1^G37R mice [5]; [9]) of the same molecule?
Answer: The value was “no difference”.

Question: What about the “rate of recovery following the fatigue protocol vs placebo” value (SOD1^G37R mice [5]; [9]) of the same molecule?
Answer: Its value is “comparable”.

Question: What about the “rate of fatigue of contractions generated by motor nerve stimulation vs placebo” value (SOD1^G37R mice [5]; treatment from disease onset) of the same molecule?
Answer: Its value is “no difference”.

Question: What about the “rate of recovery following the fatigue protocol vs placebo” value (SOD1^G37R mice [5]; treatment from disease onset) of the same molecule?
Answer: Its value is “no difference”.

Question: And the “EDL fatigue on direct muscle stimulation” value (SOD1^G37R mice [5]; treatment from disease onset, p<0.01 vs placebo)?
Answer: Its value is “more typical for this type of fast twitch muscle”.
